We go through 27 compounds from US20250129067A1 (Progentos Therapeutics, Inc., priority 2021, published 2025).

One data set has as its target PDGFRα (Homo sapiens (Human), UniProt P16234). The data set is described as follows: PDGFRα kinase enzyme assay (Promega PDGFRα Kinase Enzyme System, ADP-Glo). The format is biochemical. As to conditions: 11-point dose response, 10,000 nM to 0.169 nM; 150 uM ATP; BLQ = below limit of quantitation; read-out: IC50 Values on PDGFRα Kinase Inhibition, IC50. The protocol: The PDGFRα enzyme assays were conducted per the manufacturer's directions (Promega PDGFRα Kinase Enzyme System and ADP Glo Assay Cat #V8011). […] 20 ng of purified PDGFRα protein was added to the test article. […] ADP-Glo was added to halt the kinase reaction and deplete the remaining ATP. Kinase detection reagent, containing luciferase and luciferin, was used to convert the ADP signal into luminescence. Luminescence was measured using a Molecular Devices Spectramax ID5 and compared to a standard curve to determine kinase activity. IC50s were calculated using Prism 9, Graphpad software.
A general note: ADP-Glo turns the ADP formed in a reaction into a luminescent signal.

Data set [1] concerns Oligodendrocyte progenitor cells (OPCs). In words: In vitro OPC differentiation assay, GPR17 expression (immunocytochemistry). As to conditions: 3 μM (10× concentration, final 0.3 μM); 72 hours; fold change over vehicle.

SMILES strings stand for the structures. Bounds are passed on as bounds.

PDGFRα, sequence (P16234 24-1089): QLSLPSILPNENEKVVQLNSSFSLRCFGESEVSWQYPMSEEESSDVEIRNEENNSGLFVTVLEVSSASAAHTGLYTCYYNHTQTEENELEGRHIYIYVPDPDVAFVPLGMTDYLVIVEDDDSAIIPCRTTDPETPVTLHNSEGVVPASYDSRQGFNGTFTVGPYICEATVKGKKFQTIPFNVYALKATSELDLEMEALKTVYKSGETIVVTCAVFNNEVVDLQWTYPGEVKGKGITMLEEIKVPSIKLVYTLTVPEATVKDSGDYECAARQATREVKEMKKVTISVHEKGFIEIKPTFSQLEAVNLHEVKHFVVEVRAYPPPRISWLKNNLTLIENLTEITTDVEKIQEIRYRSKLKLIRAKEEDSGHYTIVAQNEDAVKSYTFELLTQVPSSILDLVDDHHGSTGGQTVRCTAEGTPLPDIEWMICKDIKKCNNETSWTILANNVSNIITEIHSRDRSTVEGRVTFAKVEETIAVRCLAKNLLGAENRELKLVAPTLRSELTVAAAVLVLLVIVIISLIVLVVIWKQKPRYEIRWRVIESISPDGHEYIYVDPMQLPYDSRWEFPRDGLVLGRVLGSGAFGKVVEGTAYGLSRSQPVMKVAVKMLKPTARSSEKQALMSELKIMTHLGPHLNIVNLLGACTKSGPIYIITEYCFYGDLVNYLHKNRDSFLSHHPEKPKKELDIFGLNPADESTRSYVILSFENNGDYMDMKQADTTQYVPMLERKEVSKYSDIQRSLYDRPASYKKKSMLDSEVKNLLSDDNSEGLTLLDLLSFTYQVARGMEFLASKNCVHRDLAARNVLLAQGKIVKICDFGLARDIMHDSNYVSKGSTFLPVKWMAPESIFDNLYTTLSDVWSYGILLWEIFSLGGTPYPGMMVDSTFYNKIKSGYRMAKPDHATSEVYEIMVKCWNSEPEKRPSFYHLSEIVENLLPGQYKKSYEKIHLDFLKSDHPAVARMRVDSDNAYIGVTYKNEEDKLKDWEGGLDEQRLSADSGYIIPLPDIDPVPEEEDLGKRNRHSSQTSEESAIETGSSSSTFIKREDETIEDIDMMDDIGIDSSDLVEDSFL

Turning to `Cn1cc(-c2ccc3c(N4CCN(C(=O)OCC5CC(F)(F)C5)CC4)cnn3c2)cn1` [Compound 308, (3,3-difluorocyclobutyl)methyl 4-[6-(1-methyl-1H-pyrazol-4-yl)pyrazolo[1,5-a]pyridin-3-yl]piperazine-1-carboxylate], the IC50 at PDGFRα was 2110 nM. For the same compound, the “GPR17 Fold Induction (Over Vehicle; 3 μM)” value (from here on “GPR17 Fold Induction”) in data set [1] was determined as 3.67.

Regarding `Cn1cc(-c2ccc3c(N4CCN(c5ncc(CCC(O)c6ccccc6)cn5)CC4)cnn3c2)cn1` (stereo not drawn) [Compound 165, 3-(2-(4-(6-(1-methyl-1H-pyrazol-4-yl)pyrazolo[1,5-a]pyridin-3-yl)piperazin-1-yl)pyrimidin-5-yl)-1-phenylpropan-1-ol], the IC50 at PDGFRα is 686 nM. In addition, the “GPR17 Fold Induction” value in data set [1] turned out to be 18.42.

In the case of `C[C@@H](OC(=O)N1CCCN(c2cnc3nc(-c4cnn(C)c4)ccn23)CC1)c1ccccc1` [Compound 117, (R)-1-phenylethyl 4-(7-(1-methyl-1H-pyrazol-4-yl)imidazo[1,2-a]pyrimidin-3-yl)-1,4-diazepane-1-carboxylate], the IC50 at PDGFRα was greater than 10000 nM. Moreover, the “GPR17 Fold Induction” value in data set [1] worked out at 1.39.

As for `CN(CCN(C)c1cnc2nc(-c3cnn(C)c3)ccn12)C(=O)OC(C)(C)C` [Compound 108, tert-butyl methyl(2-(methyl(7-(1-methyl-1H-pyrazol-4-yl)imidazo[1,2-a]pyrimidin-3-yl)amino)ethyl)carbamate], the IC50 at PDGFRα is greater than 10000 nM. Moreover, the “GPR17 Fold Induction” value in data set [1] amounted to 0.54.

On to `Cn1cc(-c2ccc3c(N4CCN(C(=O)OCc5csc(Cl)c5)CC4)cnn3c2)cn1` [Compound 197, (5-chlorothiophen-3-yl)methyl 4-(6-(1-methyl-1H-pyrazol-4-yl)pyrazolo[1,5-a]pyridin-3-yl)piperazine-1-carboxylate], for which the IC50 at PDGFRα came out at 65.3 nM. Besides, the “GPR17 Fold Induction” value in data set [1] came to 12.24.

On to `Cn1cc(-c2ccc3c(N4CCN(c5ncc(Oc6ccccc6)cn5)CC4)cnn3c2)cn1` [Compound 166, 6-(1-methyl-1H-pyrazol-4-yl)-3-(4-(5-phenoxypyrimidin-2-yl)piperazin-1-yl)pyrazolo[1,5-a]pyridine], for which the IC50 at PDGFRα worked out at 3570 nM. In addition, the “GPR17 Fold Induction” value in data set [1] turned out to be 6.36.

As to `Cn1cc(-c2ccc3c(C4CCC(COc5ccccc5)CC4)cnn3c2)cn1` (stereo not drawn) [Compound 138, 6-(1-methyl-1H-pyrazol-4-yl)-3-(4-(phenoxymethyl)cyclohexyl)pyrazolo[1,5-a]pyridine], the concentration for half-maximal inhibition (IC50) on PDGFRα worked out at 9010 nM. Also, in data set [1], the “GPR17 Fold Induction” value is 0.98.

Consider `CN(Cc1ccc(Cl)cc1)C(=O)N1CCN(c2cnn3cc(-c4cnn(C)c4)ccc23)CC1` [Compound 278, N-(4-chlorobenzyl)-N-methyl-4-[6-(1-methyl-1H-pyrazol-4-yl)pyrazolo[1,5-a]pyridin-3-yl]piperazine-1-carboxamide], for which, on PDGFRα, the IC50 is 1400 nM. In data set [1], the “GPR17 Fold Induction” value is listed as 6.13.

With `Cn1cc(-c2ccc3c(N4CCN(c5ncc(CN6CCc7ccccc76)cn5)CC4)cnn3c2)cn1` [Compound 174, 3-(4-(5-(indolin-1-ylmethyl)pyrimidin-2-yl)piperazin-1-yl)-6-(1-methyl-1H-pyrazol-4-yl)pyrazolo[1,5-a]pyridine], the IC50 on PDGFRα was determined as 306 nM. Moreover, the “GPR17 Fold Induction” value in data set [1] worked out at 6.67.

`Cn1cc(-c2ccc3c(N4CCN(c5ncc(Cc6ccoc6)cn5)CC4)cnn3c2)cn1` [Compound 169, 3-(4-(5-(furan-3-ylmethyl)pyrimidin-2-yl)piperazin-1-yl)-6-(1-methyl-1H-pyrazol-4-yl)pyrazolo[1,5-a]pyridine]: on PDGFRα, the 50% inhibitory concentration (IC50) came out at 825 nM. The “GPR17 Fold Induction” value in data set [1] was determined as 9.79.

As to `CC(C)(C)OC(=O)N1CCCN(c2cnc3nc(-c4cccnc4)ccn23)CC1` [Compound 106], on PDGFRα, the half-maximal inhibitory concentration (IC50) is greater than 10000 nM. Moreover, the “GPR17 Fold Induction” value in data set [1] is 0.72.

`Cn1cc(-c2ccn3c(N4CCC(C(=O)OC(C)(C)C)C4)cnc3n2)cn1` (stereo not drawn) [Compound 110, tert-butyl 1-(7-(1-methyl-1H-pyrazol-4-yl)imidazo[1,2-a]pyrimidin-3-yl)pyrrolidine-3-carboxylate]: the half-maximal inhibitory concentration (IC50) on PDGFRα was greater than 10000 nM. The “GPR17 Fold Induction” value in data set [1] is listed as 0.85.

Regarding `Cn1cc(-c2ccc3c(N4CCN(C(=O)OCC5CCOCC5)CC4)cnn3c2)cn1` [Compound 14, Tetrahydro-2H-pyran-4-ylmethyl 4-[6-(1-methyl-1H-pyrazol-4-yl)pyrazolo[1,5-a]pyridin-3-yl]piperazine-1-carboxylate], on PDGFRα, the IC50 came to 4310 nM. In addition, the “GPR17 Fold Induction” value in data set [1] turned out to be 1.11.

`CCC(O)c1ccc2c(N3CCN(C(=O)OC(C)(C)C)CC3)cnn2c1` (stereo not drawn) [Compound 298, tert-butyl 4-(6-(1-hydroxypropyl)pyrazolo[1,5-a]pyridin-3-yl)piperazine-1-carboxylate]: on PDGFRα, the IC50 is greater than 10000 nM. For the same compound, the “GPR17 Fold Induction” value in data set [1] is 1.56.

`Cn1cc(-c2ccc3c(N4CCN(C(=O)OCc5ccc(Cl)s5)CC4)cnn3c2)cn1` [Compound 196, (5-chlorothiophen-2-yl)methyl 4-(6-(1-methyl-1H-pyrazol-4-yl)pyrazolo[1,5-a]pyridin-3-yl)piperazine-1-carboxylate]: the IC50 at PDGFRα is 522 nM. Also, the “GPR17 Fold Induction” value in data set [1] was 5.65.

Turning to `CC(C)(C)OC(=O)N1CCN(c2cnc3nc(C4CCOC4)ccn23)CC1` (stereo not drawn) [Compound 103, tert-butyl 4-(7-(tetrahydrofuran-3-yl)imidazo[1,2-a]pyrimidin-3-yl)piperazine-1-carboxylate], at PDGFRα, the IC50 is greater than 10000 nM. For the same compound, in data set [1], the “GPR17 Fold Induction” value is reported as 0.65.

Regarding `Cn1cc(-c2ccn3c(N4CCN(c5ncc(Cc6ccccc6)cn5)CC4)nnc3c2)cn1` [Compound 24, 3-[4-(5-benzylpyrimidin-2-yl)piperazin-1-yl]-7-(1-methyl-1H-pyrazol-4-yl)[1,2,4]triazolo[4,3-a]pyridine], the concentration for half-maximal inhibition (IC50) on PDGFRα is greater than 10000 nM. Besides, in data set [1], the “GPR17 Fold Induction” value worked out at 0.54.

As to `CCCCCc1cnc(N2CCN(c3cnn4cc(-c5cnn(C)c5)ccc34)CC2)nc1` [Compound 190], the 50% inhibitory concentration (IC50) on PDGFRα was determined as 543 nM. The “GPR17 Fold Induction” value in data set [1] stood at 6.05.

For `CCCc1ccc2c(N3CCN(C(=O)OC(C)(C)C)CC3)cnn2c1` [Compound 203, tert-butyl 4-(6-propylpyrazolo[1,5-a]pyridin-3-yl)piperazine-1-carboxylate], the 50% inhibitory concentration (IC50) on PDGFRα was greater than 10000 nM. Moreover, the “GPR17 Fold Induction” value in data set [1] is reported as 1.35.

Turning to `Cn1cc(-c2ccc3c(N4CCN(c5ncc(Cc6cscn6)cn5)CC4)cnn3c2)cn1` [Compound 172, 4-((2-(4-(6-(1-methyl-1H-pyrazol-4-yl)pyrazolo[1,5-a]pyridin-3-yl)piperazin-1-yl)pyrimidin-5-yl)methyl)thiazole], the IC50 on PDGFRα came out at 710 nM. Besides, in data set [1], the “GPR17 Fold Induction” value was 4.90.

As for `Cn1cc(-c2ccc3c(N4CCN(S(=O)(=O)NCc5ccc(C(F)(F)F)cc5)CC4)cnn3c2)cn1` [Compound 294, 4-(6-(1-methyl-1H-pyrazol-4-yl)pyrazolo[1,5-a]pyridin-3-yl)-N-(4-(trifluoromethyl)benzyl)piperazine-1-sulfonamide], the IC50 on PDGFRα stood at 5.96 nM. For the same compound, in data set [1], the “GPR17 Fold Induction” value is 9.58.

In the case of `Cn1cc(-c2ccc3c(N4CCN(c5ncc(Cn6ccc7ccccc76)cn5)CC4)cnn3c2)cn1` [Compound 191, 3-(4-(5-((1H-indol-1-yl)methyl)pyrimidin-2-yl)piperazin-1-yl)-6-(1-methyl-1H-pyrazol-4-yl)pyrazolo[1,5-a]pyridine], at PDGFRα, the IC50 is 287 nM. In addition, the “GPR17 Fold Induction” value in data set [1] is reported as 23.57.

In the case of `CC(C)(C)OC(=O)N1CCN(c2cnn3cc(-c4ccncc4)ccc23)CC1` [Compound 218, tert-butyl 4-(6-(pyridin-4-yl)pyrazolo[1,5-a]pyridin-3-yl)piperazine-1-carboxylate], the IC50 on PDGFRα was found to be 2310 nM. The “GPR17 Fold Induction” value in data set [1] is 3.46.

With `CC(C)(C)OC(=O)N1CCN(c2cnn3cc(C4CC4)ccc23)CC1` [Compound 213, tert-butyl 4-{6-cyclopropylpyrazolo[1,5-a]pyridin-3-yl}piperazine-1-carboxylate], at PDGFRα, the IC50 is greater than 10000 nM. Further, in data set [1], the “GPR17 Fold Induction” value is on record as 0.68.

Turning to `Cn1nnc(-c2ccc3c(N4CCN(C(=O)OC(C)(C)C)CC4)cnn3c2)n1` [Compound 237, tert-butyl 4-(6-(2-methyl-2H-tetrazol-5-yl)pyrazolo[1,5-a]pyridin-3-yl)piperazine-1-carboxylate], the 50% inhibitory concentration (IC50) at PDGFRα was greater than 10000 nM. Further, the “GPR17 Fold Induction” value in data set [1] is 0.95.

For the compound `[2H]C1([2H])N(C(=O)O[C@H](C)c2ccc(Cl)cc2)C([2H])([2H])C([2H])([2H])N(c2cnn3cc(-c4cnn(C)c4)ccc23)C1([2H])[2H]` [Compound 290, (R)-1-(4-chlorophenyl)ethyl 4-(6-(1-methyl-1H-pyrazol-4-yl)pyrazolo[1,5-a]pyridin-3-yl)piperazine-1-carboxylate-2,2,3,3,5,5,6,6-d8], the IC50 at PDGFRα was 0.56 nM. The “GPR17 Fold Induction” value in data set [1] was determined as 10.47.

As to `Cn1cc(-c2ccc3c(C4=CCC(COc5ccccc5)CC4)cnn3c2)cn1` (stereo not drawn) [Compound 243, 1-methyl-4-{3-[4-(phenoxymethyl)cyclohex-1-en-1-yl]pyrazolo[1,5-a]pyridin-6-yl}pyrazole], the concentration for half-maximal inhibition (IC50) at PDGFRα was greater than 10000 nM. Further, in data set [1], the “GPR17 Fold Induction” value came to 0.62.

One may read the IC50 as the concentration that gives 50% inhibition.
